Measured values published in PubChem BioAssay (NCI).
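Each compound was tested at five concentrations against cells in 96-well plates for 48 hours. GI50 marks 50% less growth. Definition used: TGI = concentration required for complete inhibition of growth.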

Experiments:
Experiment in all cases: DTP human tumour cell line panel, 48 h
[1] = system: CAKI-1 renal
[2] = system: PC-3 prostate
[3] = system: DU-145 prostate
[4] = system: UACC-62 melanoma
[5] = system: COLO 205 colon
[6] = system: UO-31 renal
[7] = system: MDA-MB-231 breast
[8] = system: RPMI-8226 leukemia
[9] = system: HOP-62 NSCLC
[10] = system: NCI-H23 lung
[11] = system: HCC-2998 colon
[12] = system: SF-268 CNS
[13] = system: SR leukemia
[14] = system: HCT-15 colon
[15] = system: KM12 colon
[16] = system: SNB-75 CNS
[17] = system: U251 CNS
[18] = system: M14 melanoma
[19] = system: SF-295 CNS
[20] = system: HT29 colon
[21] = system: UACC-257 melanoma
[22] = system: HS 578T breast
[23] = system: SK-MEL-5 melanoma
[24] = system: SK-OV-3 ovarian
[25] = system: SK-MEL-2 melanoma
[26] = system: K-562 leukemia
[27] = system: SNB-19 CNS
[28] = system: HL-60(TB) leukemia
[29] = system: ACHN renal

CC(C)[C@H]1CC[C@H]2[C@@H](CC[C@H]3[C@](C)(CN)CCC[C@]23C)C1
GI50 [1]: 1710 nM | TGI [1]: 4.2 µM | GI50 [2]: 2360 nM | TGI [2]: 7.14 µM | GI50 [3]: 1950 nM | TGI [3]: 3.58 µM | GI50 [4]: 3.38 µM | TGI [4]: 14.3 µM | GI50 [5]: 1740 nM | TGI [5]: 3.27 µM | GI50 [6]: 1760 nM | TGI [6]: 4.21 µM | GI50 [7]: 2050 nM | TGI [7]: 4.51 µM | GI50 [8]: 2900 nM | TGI [8]: 12.2 µM | GI50 [9]: 1890 nM | TGI [9]: 3.48 µM | GI50 [10]: 1790 nM | TGI [10]: 3.39 µM | GI50 [11]: 1790 nM | TGI [11]: 3.18 µM | GI50 [12]: 2360 nM | TGI [12]: 6.04 µM | GI50 [13]: 2650 nM | TGI [13]: 15.2 µM | GI50 [14]: 1810 nM | TGI [14]: 3.98 µM | GI50 [15]: 1790 nM | TGI [15]: 3.18 µM | GI50 [16]: 6.95 µM | TGI [16]: 21.3 µM | GI50 [17]: 1670 nM | TGI [17]: 3.08 µM | GI50 [18]: 1770 nM | TGI [18]: 3.18 µM | GI50 [19]: 1830 nM | TGI [19]: 3.87 µM | GI50 [20]: 1650 nM | TGI [20]: 3.3 µM | GI50 [21]: 2680 nM | TGI [21]: 6.02 µM | GI50 [22]: 2450 nM | TGI [22]: 6.67 µM | GI50 [23]: 4.87 µM | TGI [23]: 17.3 µM | GI50 [24]: 4.25 µM | TGI [24]: 16.3 µM | GI50 [25]: 2570 nM | TGI [25]: 5.99 µM | GI50 [26]: 2250 nM | TGI [26]: 5.31 µM | GI50 [27]: 3.19 µM | TGI [27]: 12.9 µM | GI50 [28]: 1800 nM | TGI [28]: 4.23 µM | GI50 [29]: 2420 nM
